Results taken from PMC3257419 (Journal of Medicinal Chemistry, 2011).

Tests used:
[1] = tested on: cocaine-induced increases in synaptic dopamine; experiment: MicroPET imaging of [11C]-raclopride binding after cocaine; assay type: in vivo, rat; details: cocaine alone, average
[2] = tested on: succinic semialdehyde dehydrogenase; details: cited from earlier work
alanine aminotransferase = details: cited from earlier work
subjects = details: trial of 103 subjects, placebo 7.5%; cited from earlier work
white matter of the CNS = details: characterized as intramyelinic edema; cited from earlier work
Sprague-Dawley rats = details: Vigabatrin/Cocaine, vigabatrin 300 mg/kg; ref Dewey et al.[7]; cited from earlier work
patients = details: following chronic administration; cited from earlier work
GABA transport = details: cited from earlier work

| SMILES | reduction of [11C]-raclopride binding [1] | effect on succinic semialdehyde dehydrogenase activity in vivo [2] | effect on alanine aminotransferase activity in vivo (alanine aminotransferase) | subjects who achieved abstinence (subjects) | CNS histopathological finding (white matter of the CNS) | Time in chamber (min) unpaired (Sprague-Dawley rats) | implicit times of the ERGs (Wistar albino rats; CPP-115 20 mg/kg, vigabatrin 200 mg/kg) | clinical observation in the first three weeks of treatment (Wistar albino rats; CPP-115 20 mg/kg, vigabatrin 200 mg/kg daily i.p.) | 10 Hz flicker ERGs compared to both CPP-115 and controls (Wistar albino rats; both sexes, both time points, data not shown) | rod, mesopic, and cone b-wave implicit times compared to controls or CPP-115 (Wistar albino rats; females, 200 mg/kg, data not shown) | patients with visual field defects (VFDs) (patients) | action on GABA reuptake (GABA transport) |
| --- | --- | --- | --- | --- | --- | --- | --- | --- | --- | --- | --- | --- |
| COC(=O)[C@H]1[C@@H](OC(=O)c2ccccc2)C[C@@H]2CC[C@H]1N2C [Cocaine, reference compound] | 22% | – | – | – | – | – | – | – | – | – | – | – |
| C=CC(N)CCC(=O)O (stereo not drawn) [Vigabatrin, vigabatrin] | – | reduce activities | reduce activities | 28% | microvacuolization in the white matter of the CNS | 7.1 ± 0.6 min | little or no drug effect | sedative effects | significantly lower | significantly increased | 25–50% | GABA reuptake inhibitor |
